# Laboratory results from PMC5103216, “Novel Agonist Bioisosteres and Common Structure-Activity Relationships for The Orphan G Protein-Coupled Receptor GPR139” (Scientific Reports, 2016).
# How the values were obtained:
# Assay type in all cases: cell-based
# GPR139 [1] = target: T1, GPR139 (Homo sapiens, UniProt Q6DWJ6); assay: cAMP dynamic 2 assay measuring Gs activation in CHO-139
# T1 sequence (Q6DWJ6 1-353): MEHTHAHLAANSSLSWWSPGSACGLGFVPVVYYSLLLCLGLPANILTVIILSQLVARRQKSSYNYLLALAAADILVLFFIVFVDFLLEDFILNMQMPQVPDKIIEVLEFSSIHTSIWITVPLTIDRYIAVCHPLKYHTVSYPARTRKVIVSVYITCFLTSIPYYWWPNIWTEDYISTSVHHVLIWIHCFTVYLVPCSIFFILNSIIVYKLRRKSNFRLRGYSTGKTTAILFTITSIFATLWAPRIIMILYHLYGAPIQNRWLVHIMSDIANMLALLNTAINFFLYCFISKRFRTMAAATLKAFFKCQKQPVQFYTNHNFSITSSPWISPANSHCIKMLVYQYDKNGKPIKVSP
# Method: (§1) The cAMP assay was performed as described in the work by Thomsen et al.[28] with few modifications. Breifly, CHO-139 and CHO-M1 was detached and resuspended to a concentration of 1 million cells/mL. 5 μL 2x concentrated compound (for Gs: +100 μM IBMX and for Gi: +100 μM IBMX +10 μM forskolin (Fsk)) and 5 μL cell suspension (5,000 cells/well) was mixed. The plate was sealed and incubated at room temperature for 30 min. Next, 10 μL detection reagents (lysis buffer containing 2.5% Eu^3+-anti-cAMP antibody and 2.5% cAMP-d2) was added and the plate was incubated for 1 hour at room temperature. The plate was read on an Envision (PerkinElmer, Waltham, MA, USA). The TR-FRET 665 nm/615 nm ratio, which is inversely proportional with the cAMP production, was used to determination the concentration of the cAMP response. […]
# (§2) Supplementary Figure 1. cAMP dynamic 2 assay measuring Gs activation. 5,000 cells/well of CHO-139 (pink bars) or CHO-M1 (blue bars) cells are
# (§3) incubated with the indicated compounds for 30 min at room temperature in the presence of 50 µM IBMX. 5 µM and 10 µM forskolin (Fsk) serves as positive
# (§4) controls. The responses are one representative out of at two independent experiments performed in triplicates. Data points are means ± SD. […]
# (§5) Data points are means ± SD.
# GPR139 [2] = target: T1, GPR139; assay: Fluo-4 Ca2+-assay in CHO-k1 cells stably expressing GPR139 (CHO-GPR139); settings: for EC50: CHO-GPR139, mean of at least three experiments; for Emax: CHO-K1, relative to 1a
# Method: Compound 1a[11] was kindly provided by H. Lundbeck A/S, Denmark. Compound 7c (Enamine no: Z31449867) was tested as a racemate, as the (S)-form described by Janssen et al. was not commercially available. All compounds were dissolved to 20 mM in DMSO (Sigma, D2650) and subsequently diluted in a HEPES buffer (HBSS (Invitrogen, 14025) supplemented with 20 mM HEPES + 1 mM MgCl2 + 1 mM CaCl2, pH = 7.4) to a final concentration 0.5% DMSO in the assay. The DMSO level was kept constant for all concentrations of all compounds. DMSO was confirmed not to have any activity by itself at this concentration. L-Tryptophan (T0254) and L-Phenylalanine (P2126) were obtained from Sigma-Aldrich and dissolved directly in buffer.
# All compounds were tested on a CHO-k1 cell line stably expressing GPR139 (CHO-GPR139) kindly provided by H. Lundbeck A/S, Denmark, and also on a CHO-k1 cell line stably expressing the M1 receptor (CHO-M1) (The Missouri S&T cDNA Resource Center, #CEM100TN00) to check for specificity. The CHO-GPR139 was grown in Dulbecco’s modified eagle medium (DMEM) F12-Kaighn’s (Gibco, 21127) supplemented with 10% dialysed fetal bovine serum (Gibco, 26400, United States origin), 1% GlutaMAX^TM-I (100X) (Gibco, 35050), and 100 units/mL penicillin and 100 μg/mL streptomycin (Gibco, 15140) and 1.0 mg/mL geneticin (Invitrogen, 1181103). CHO-M1 was grown in Ham’s F12 (Gibco, 21765) supplemented with 10% fetal bovine serum (Gibco, 10270, South America origin) +100 units/mL penicillin and 100 μg/mL streptomycin (Invitrogen, 15140–122) and 0,25 mg/mL geneticin (Life Technologies, 11811–031). Compound 1a and carbamoylcholine chloride (Sigma-Aldrich, C4382) were used as positive controls in the two cell lines, respectively.
# 30.000 cells/well were plated in black 96-well plates with flat clear bottoms (Corning, Falcon, 353219) and incubated overnight. The Fluo-4 dye loading solution (Invitrogen, F36206) was prepared according to the manufacturer’s instructions by dissolving it in HEPES buffer supplemented with 2.5 mM probenecid. 50 μL dye loading solution was added to each well. Cells were incubated with the Fluo-4 dye for 60 min at 37 °C, then washed with 100 μL HEPES buffer. 100 μL HEPES buffer supplemented with 2.5 mM probenecid was then added to each well and incubated in 10 minutes at 37 °C before measurement. 33 μL of the test compounds (4x concentrated) were added automatically after baseline measurements. Intracellular calcium change was recorded on a NOVOstar instrument (BMG Labtech) at 37 °C with an excitation filter of 485 nm and an emission filters 520 nm. Data originate from three independent experiments in triplicates.
# M1 receptor = target: T2, M1 receptor (Homo sapiens, UniProt P11229); assay: cAMP dynamic 2 assay measuring Gs activation in CHO-M1 (control)
# T2 construct: host or cells: CHO-k1
# T2 sequence (P11229 1-460): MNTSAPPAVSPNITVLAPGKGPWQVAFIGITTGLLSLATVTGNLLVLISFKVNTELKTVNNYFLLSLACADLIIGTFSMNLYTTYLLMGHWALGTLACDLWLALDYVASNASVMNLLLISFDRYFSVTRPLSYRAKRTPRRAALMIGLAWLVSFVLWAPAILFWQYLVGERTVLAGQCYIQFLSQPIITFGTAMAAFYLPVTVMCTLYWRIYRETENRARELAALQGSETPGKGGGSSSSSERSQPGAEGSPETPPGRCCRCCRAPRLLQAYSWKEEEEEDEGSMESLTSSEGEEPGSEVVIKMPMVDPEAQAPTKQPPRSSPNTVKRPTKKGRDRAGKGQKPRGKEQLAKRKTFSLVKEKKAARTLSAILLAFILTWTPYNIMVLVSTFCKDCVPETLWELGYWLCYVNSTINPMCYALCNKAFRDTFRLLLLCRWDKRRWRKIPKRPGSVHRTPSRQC
# Method: as §1, §2, §3, §4, §5
SMILES,Gs response (cAMP) (GPR139 [1]),EC50 (GPR139 [2]),Emax (GPR139 [2]),Gs response (cAMP) (M1 receptor),fold lower potency than 1a (GPR139 [2])
O=C(CN1CCCc2ccccc21)NNC(=O)c1ccc2c(c1)OCO2 [DL22],None of the tested compounds induced Gs response,442 nM,105%,None of the tested compounds induced Gs response,–
COc1cc(OC)cc(C(=O)NNC(=O)C2CCCc3ccccc32)c1 (stereo not drawn) [DL24],None of the tested compounds induced Gs response,431 nM,109%,None of the tested compounds induced Gs response,–
CCn1c(C)nc2cc(C(=O)NNC(=O)Cc3cccc4ccccc34)ccc21 [DL43],None of the tested compounds induced Gs response,364 nM,97%,None of the tested compounds induced Gs response,~ 10 fold
O=C(Cc1cccc2ccccc12)NNC(=O)c1ccc2c(c1)OCO2 [DL126],None of the tested compounds induced Gs response,411 nM,91%,None of the tested compounds induced Gs response,~ 10 fold
O=C(CNC(=O)c1ccc2c(c1)OCO2)NC1CCSc2ccc(F)cc21 (stereo not drawn) [DL130],None of the tested compounds induced Gs response,888 nM,89%,None of the tested compounds induced Gs response,–
O=C(NCC(=O)N1CCCC1c1ccccc1)c1ccc2c(c1)OCO2 (stereo not drawn) [DL132],None of the tested compounds induced Gs response,505 nM,94%,None of the tested compounds induced Gs response,–
